# Experiments:
# sebocytes [1] = assay: 3H-thymidine incorporation into sebocytes; assay type: cell-based, human; settings: Homo sapiens, 3 h; uptake into sebocytes; NS = not significant
# Procedure: (§1) The activities of 1-7 and 1-8 on an immortalized sebocyte cell line were examined in the laboratory of Prof Im Myung using methods previously described [Im et al. Epigallocatechin-3-gallate suppresses IGF-I-induced lipogenesis and cytokine expression in SZ95 sebocytes. J. Invest. Dermatol. 132, 2700-8 (2012)]. Proliferation of the sebocytes was measured using the MTT assay, by examination of micrographs of the cells in culture, and ^3H-thymidine incorporation. The effects of the test agents on lipogenesis were further studied by Oil Red O staining and analysis of the lipid composition of the cells. Studies were also conducted on signaling pathways for lipogenesis [PPAR and SREBP-1, Trivedi et al. Peroxisome proliferator-activated receptors increase human sebum production. J. Invest. Dermatol. 126, 2002-9 (2006)].
# (§2) 1-7 and 1-8 are sensory cooling agents on the skin and activators [agonists] of the TRPM8 ion channel protein. […] The indicators used for direct comparison were sebocyte viability measured in the MTT assay and then the ^3H-thymidine incorporation assay.
# sebocytes [2] = assay: Sebocyte viability, MTT assay; assay type: cell-based, human
# Procedure: as §1
# The MTT assay is a colorimetric assay for cell viability. MTT [3-(4,5-dimethylthiazol-2-yl)-2-5-diphenyltetrazolium bromide], a yellow tetra-azole dye, is reduced to purple formazan in living cells by NADPH-dependent oxidoreductase enzymes. When the number of viable cells decreases the amount of enzymatic activity and purple color decreases and this can be measured with a spectrophotometer.
# as §2
# cloned hTRPM8 channel = molecular target: T1, cloned hTRPM8 channel (Homo sapiens, UniProt Q7Z2W7); assay: TRPM8 activation, FLIPR calcium assay in CHO cells; assay type: cell-based
# T1 construct: host or cells: CHO cells
# Procedure: The in vitro effects of test articles were first evaluated on cloned hTRPM8 channel. […] The test cells were Chinese Hamster Ovary (CHO) cells stably transfected with human TRPM8 cDNAs. […] Substances were evaluated at 8 concentrations (0.03 to 300 μM) with n=4 replicates per determination. For Fluorescence Imaging Plate Reader ([…]″) assay, cells were plated in 384-well black wall, flat clear-bottom microtiter plates (Type: BD Biocoat Poly-D-Lysine Multiwell Cell Culture Plate) at approximately 30,000 cells per well. Cells were incubated at 37° C. overnight to reach a near confluent monolayer appropriate for use in a fluorescence assay. The test procedure was to remove the growth media and to add 40 μL of HBPS containing Fluo-8 for 30 minutes at 37° C. 10 μL of test compound, vehicle, or control solutions in HBPS were then added to each well and read for 4 min using a Fluo-8 calcium kit and the […]″ instrument (Molecular Devices, Sunnyvale, California). […] J. Neurosci.
# Concentration-response data were analysed via the FLIPR Control software that is supplied with the FLIPR System (MDS-AT) and fitted to a Hill equation of the following form: Response=Base+(Max−Base)/1+(xhalf/x)^rate, where: “Base” is the response at low concentrations of test compound; “Max” is the maximum response at high concentrations; “xhalf” is the EC50 (the concentration of test compound producing half-maximal activation); and “rate” is the Hill coefficient. Nonlinear least squares fits were made assuming a simple one-to-one binding model.
# [3] = Foaming of aqueous solution on manual shaking; assay type: physicochemical; settings: 10 mg/mL in distilled water
# Procedure: The foaming seen in 7B is characteristic of a surface active agent or “surfactant” and is caused by an amphiphilic structure.
# Plain water will not make bubbles because the water molecules are more strongly attracted to each other than to air. But when a surfactant is added, the surface tension of the liquid is reduced and it can wrap itself around air to form foam or soap bubbles. The foaming is enhanced when the liquid is shaken vigorously.
# sebocytes [4] = assay: IGF-1 stimulated lipogenesis in sebocytes (Oil Red O, thin-layer and gas chromatography of lipids); assay type: cell-based, human; settings: IGF-1 stimulated sebocytes
# Procedure: as §1, with “132, 2700-8 (2012)].” left out, “Dermatol.” for “Dermatol. 126, 2002-9 (2006)].”
# J. Invest. Dermatol. […] Oil Red 0 [Sudan Red 5B] is a diazo dye used for staining neutral triglycerides and lipids on cells.
# T1 sequence (Q7Z2W7 whole entry): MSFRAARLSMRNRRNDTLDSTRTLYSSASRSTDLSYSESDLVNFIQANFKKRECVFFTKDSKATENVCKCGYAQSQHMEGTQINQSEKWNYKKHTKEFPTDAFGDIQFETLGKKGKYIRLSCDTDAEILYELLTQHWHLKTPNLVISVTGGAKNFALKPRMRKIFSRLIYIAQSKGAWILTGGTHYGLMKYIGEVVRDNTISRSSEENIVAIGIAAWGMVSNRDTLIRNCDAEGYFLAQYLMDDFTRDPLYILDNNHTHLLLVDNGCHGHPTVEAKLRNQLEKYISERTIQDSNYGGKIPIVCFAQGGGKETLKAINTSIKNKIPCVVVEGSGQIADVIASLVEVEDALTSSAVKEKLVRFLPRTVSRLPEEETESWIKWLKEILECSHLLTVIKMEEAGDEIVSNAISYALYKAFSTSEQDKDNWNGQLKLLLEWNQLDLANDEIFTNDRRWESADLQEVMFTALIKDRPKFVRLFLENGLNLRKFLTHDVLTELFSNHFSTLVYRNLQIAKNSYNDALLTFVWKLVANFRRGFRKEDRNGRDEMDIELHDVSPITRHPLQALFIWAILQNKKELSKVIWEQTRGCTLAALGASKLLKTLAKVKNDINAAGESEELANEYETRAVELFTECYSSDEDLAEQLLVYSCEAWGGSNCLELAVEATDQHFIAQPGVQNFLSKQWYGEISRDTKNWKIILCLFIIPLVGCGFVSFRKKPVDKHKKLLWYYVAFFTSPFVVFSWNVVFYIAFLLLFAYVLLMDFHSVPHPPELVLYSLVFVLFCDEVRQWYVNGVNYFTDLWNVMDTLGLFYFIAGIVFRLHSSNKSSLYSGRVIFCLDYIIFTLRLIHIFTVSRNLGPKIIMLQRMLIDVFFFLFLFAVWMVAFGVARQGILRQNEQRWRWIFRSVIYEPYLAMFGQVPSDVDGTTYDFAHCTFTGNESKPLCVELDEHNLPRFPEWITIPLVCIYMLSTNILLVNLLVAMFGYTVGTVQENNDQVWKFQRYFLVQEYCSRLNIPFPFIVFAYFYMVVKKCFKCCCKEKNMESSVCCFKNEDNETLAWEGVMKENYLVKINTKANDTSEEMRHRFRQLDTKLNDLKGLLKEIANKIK
compound,measurement,setting,value
"CCCCCCCCCCCP(=O)(C(C)C)C(C)C [Code 1-11, 1-diisopropylphosphorylundecane]",activity at 10 µM,sebocytes [1],≥ 88%
same,Activity relative to 1-8 in the MTT sebocyte assay,sebocytes [2]; FIG. 4,"10,000 x"
same,Sebocyte cell viability as % of controls (FIG. 4),sebocytes [2]; at 0.10 μM,strongly inhibited
same,Activity on TRPM8,cloned hTRPM8 channel,low potency
same,Appearance after manual shaking (FIG. 7B),[3],foaming
same,"Levels / production of squalene (thin layer chromatography, FIG. 5)",sebocytes [4],lowers
